Laboratory results: patent US8080549B2, “Endothelin receptor antagonists” (CoNCERT Pharmaceuticals, Inc., priority 2007, dated 2011)
Where two headings read alike, the source gives them in different places.

Legend:
CYP3A4 = molecular target: T1, CYP3A4 (Homo sapiens, UniProt P08684); assay: Metabolic stability in CYP3A4 Supersomes; type: in vitro ADME; details: human, recombinant CYP3A4 Supersomes, 1 μM test compound
T1 construct: purchased BD Gentest
Method: (§1) Materials: CYP3A4 Supersomes™ were obtained from BD Gentest. β-nicotinamide adenine dinucleotide phosphate, reduced form (NADPH), magnesium chloride (MgCl2), and dimethyl sulfoxide (DMSO) were purchased from Sigma-Aldrich.
(§2) Determination of Metabolic Stability: 7.5 mM stock solutions of test compounds were prepared in DMSO. The 7.5 mM stock solutions were diluted to 50 μM in acetonitrile (ACN). The 1000 pmol/mL CYP3A4 supersomes were diluted to 50 pmol/mL in 0.1 M potassium phosphate buffer, pH 7.4, containing 3 mM MgCl2. The diluted supersomes were added to wells of a 96-well deep-well polypropylene plate in triplicate. 10 μL of the 50 μM test compound was added to the supersomes and the mixture was pre-warmed for 10 minutes. Reactions were initiated by addition of pre-warmed NADPH solution. The final reaction volume was 0.5 mL and contained 40 pmol/mL CYP3A4 supersomes, 1 μM test compound, and 2 mM NADPH in 0.1 M potassium phosphate buffer, pH 7.4, and 3 mM MgCl2. The reaction mixtures were incubated at 37° C. and 50 μL aliquots were removed at 0, 5, 10, 20, and 30 minutes and added to shallow-well 96-well plates which contained 50 μL of ice-cold ACN with internal standard to stop the reactions. The plates were stored at 4° C. for 20 minutes after which 100 μL of water was added to the wells of the plate before centrifugation to pellet precipitated proteins. Supernatants were transferred to another 96-well plate and analyzed for amounts of parent remaining by LC-MS/MS using an Applied Bio-systems API 4000 mass spectrometer.
(§3) Data analysis: The in vitro t1/2s for test compounds were calculated from the slopes of the linear regression of % parent remaining (ln) vs incubation time relationship. • in vitro t1/2=0.693/k • k=−[slope of linear regression of % parent remaining(ln) vs incubation time]
(§4) Data analysis was performed using Microsoft Excel Software.

CYP3A4 supersomes = molecular target: T2, CYP3A4 supersomes (Homo sapiens, UniProt P08684); assay: Metabolic stability in CYP3A4 Supersomes; type: in vitro ADME; details: for increase of in vitro t1/2 over non-deuterated bosentan: CYP3A4 supersomes, under the assay conditions tested, approximate values; for % Difference: [(deuterated species) − (nondeuterated species)](100)/(nondeuterated species), of Ave t1/2 vs bosentan
T2 construct: purchased BD Gentest
Method: as §1, §2, §3, §4

[1] = active metabolite of bosentan; cited from earlier work
[2] = pH 7.4, average of Experiments 1 and 2, CYP3A4 supersomes, read-out: Ave t1/2
[3] = pH 7.4, in vitro half-life, 40 pmol/mL CYP3A4 supersomes, 2 mM NADPH, pH 7.4, 37° C., 0-30 minutes, Experiment 1, read-out: t1/2 (minutes) Experiment 1
[4] = pH 7.4, in vitro half-life, 40 pmol/mL CYP3A4 supersomes, 2 mM NADPH, pH 7.4, 37° C., 0-30 minutes, Experiment 2, read-out: t1/2 (minutes) Experiment 2

T1 sequence (P08684 whole entry): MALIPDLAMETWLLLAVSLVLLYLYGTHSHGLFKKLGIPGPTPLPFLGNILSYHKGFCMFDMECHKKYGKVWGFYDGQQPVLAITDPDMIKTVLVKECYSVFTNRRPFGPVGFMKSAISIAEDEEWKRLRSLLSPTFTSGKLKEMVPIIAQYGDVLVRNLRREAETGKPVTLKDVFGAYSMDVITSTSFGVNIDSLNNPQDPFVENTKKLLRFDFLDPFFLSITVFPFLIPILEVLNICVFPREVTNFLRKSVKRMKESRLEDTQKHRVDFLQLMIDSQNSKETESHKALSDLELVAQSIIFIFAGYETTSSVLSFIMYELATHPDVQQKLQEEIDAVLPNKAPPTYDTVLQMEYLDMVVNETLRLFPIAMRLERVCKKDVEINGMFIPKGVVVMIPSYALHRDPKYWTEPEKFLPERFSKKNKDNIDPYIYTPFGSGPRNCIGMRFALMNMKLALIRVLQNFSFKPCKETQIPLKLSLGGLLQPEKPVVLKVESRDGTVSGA
T2 sequence (P08684 whole entry): as above

## COc1ccccc1Oc1c(NS(=O)(=O)c2ccc(C(C)(C)C)cc2)nc(-c2ncccn2)nc1OCCO [Bosentan, N[6-(2-hydroxyethoxy)-5-(2-methoxyphenoxy)-2-pyrimidin-2-yl-pyrimidin-4-yl]-4-tert-butyl-benzenesulfonamide, reference compound]
CYP3A4; [2]
  half-life at 1 μM: 35.8 min
CYP3A4; [3]
  half-life at 1 μM: 34.3 min
CYP3A4; [4]
  half-life at 1 μM: 37.2 min

## [2H]C([2H])([2H])Oc1ccccc1Oc1c(NS(=O)(=O)c2ccc(C(C)(C)C)cc2)nc(-c2ncccn2)nc1OCCO [Compound 102, 4-tert-Butyl-N-(6-(2-hydroxyethoxy)-5-(2-(methoxy-d3)-phenoxy)-2,2′-bipyrimidin-4-yl)benzenesulfonamide]
CYP3A4; [2]
  half-life at 1 μM: 46.2 min
CYP3A4; [3]
  half-life at 1 μM: 45.7 min
CYP3A4; [4]
  half-life at 1 μM: 46.8 min
CYP3A4 supersomes
  increase of in vitro t1/2 over non-deuterated bosentan: ~29%
  % Difference: 29.1%

## [2H]C([2H])(O)COc1nc(-c2ncccn2)nc(NS(=O)(=O)c2ccc(C(C([2H])([2H])[2H])(C([2H])([2H])[2H])C([2H])([2H])[2H])cc2)c1Oc1ccccc1OC([2H])([2H])[2H] [Compound 106, 4-(tert-Butyl-d9)-N-(6-(2-hydroxy-2,2-d2-ethoxy)-5-(2-(methoxy-d3)phenoxy)-2,2′-bipyrimidin-4-yl)benzenesulfonamide]
CYP3A4; [2]
  half-life at 1 μM: 55.2 min
CYP3A4; [3]
  half-life at 1 μM: 53.3 min
CYP3A4; [4]
  half-life at 1 μM: 57.2 min
CYP3A4 supersomes
  increase of in vitro t1/2 over non-deuterated bosentan: ~54%
  % Difference: 54.2%

## COc1ccccc1Oc1c(NS(=O)(=O)c2ccc(C(C)(C)CO)cc2)nc(-c2ncccn2)nc1OCCO [hydroxybosentan]
[1]
  share of the overall pharmaceutical properties of bosentan: up to 20%

## [2H]C([2H])([2H])Oc1ccccc1Oc1c(NS(=O)(=O)c2ccc(C(C([2H])([2H])[2H])(C([2H])([2H])[2H])C([2H])([2H])[2H])cc2)nc(-c2ncccn2)nc1OCCO [Compound 101, 4-(tert-Butyl-d9)-N-(6-(2-hydroxyethoxy)-5-(2-(methoxy-d3)-phenoxy)-2,2′-bipyrimidin-4-yl)benzenesulfonamide]
CYP3A4; [2]
  half-life at 1 μM: 41.2 min
CYP3A4; [3]
  half-life at 1 μM: 41 min
CYP3A4; [4]
  half-life at 1 μM: 41.3 min
CYP3A4 supersomes
  increase of in vitro t1/2 over non-deuterated bosentan: ~15%
  % Difference: 15.1%

## [2H]C([2H])([2H])C(c1ccc(S(=O)(=O)Nc2nc(-c3ncccn3)nc(OCCO)c2Oc2ccccc2OC)cc1)(C([2H])([2H])[2H])C([2H])([2H])[2H] [Compound 103, 4-(tert-Butyl-d9)-N-(6-(-2-hydroxyethoxy)-5-(2-methoxyphenoxy)-2,2′-bipyrimidin-4-yl)benzenesulfonamide]
CYP3A4; [2]
  half-life at 1 μM: 38.2 min
CYP3A4; [3]
  half-life at 1 μM: 35.9 min
CYP3A4; [4]
  half-life at 1 μM: 40.5 min
CYP3A4 supersomes
  % Difference: 6.7%

## [2H]C([2H])(O)COc1nc(-c2ncccn2)nc(NS(=O)(=O)c2ccc(C(C)(C)C)cc2)c1Oc1ccccc1OC [Compound 104, 4-tert-Butyl-N-(6-(2-hydroxy-2,2-d2-ethoxy)-5-(2-methoxyphenoxy)-2,2′-bipyrimidin-4-yl)benzenesulfonamide]
CYP3A4; [2]
  half-life at 1 μM: 31.6 min
CYP3A4; [3]
  half-life at 1 μM: 30.9 min
CYP3A4; [4]
  half-life at 1 μM: 32.4 min
CYP3A4 supersomes
  % Difference: −11.7%
